Reference: PMC5799297, “Metabolic Hydrolysis of Aromatic Amides in Selected Rat, Minipig, and Human In Vitro Systems” (Scientific Reports, 2018)
Read-outs that look alike come from different tables or passages of the source. Blank lines part the entries; values can stand above or below the molecule they belong to.

What was measured:
[1] = From the text: (§1) Pooled subcellular fractions of male Sprague-Dawley rat liver S9 fractions (10 donors), male Sprague-Dawley Aroclor 1254 induced rat liver S9 fractions (20 donors), human liver S9 fractions (mixed gender 10 donors), male Gottingen minipig liver microsomes (3 donors) and male Gottingen minipig liver S9 fractions (3 donors) were purchased from BioreclamationIVT (West Sussex, UK). Cryopreserved primary human hepatocytes (mixed gender 10 donors) were also purchased from BioreclamationIVT. Human CES1b, CES1c and CES2 Supersomes and human liver microsomes (mixed gender 150 donors) were purchased from Corning (Flintshire, UK). […]
(§2) LC-MS/MS analysis was performed using a Waters UPLC instrument with an Acquity^TM binary solvent manager, Acquity^TM 4-position heated column manager and 2777 Ultra High Pressure Autosampler coupled to a Xevo-TQ MS triple quadrupole mass spectrometer (Waters Ltd, Herts, UK) with an electrospray ionisation (ESI) source. […] Incubations where the total parent amide decreased below 80% of the t0 baseline sample or the amine metabolite was detected were determined to be hydrolysed.

[2] = human, in vivo; cited from earlier work
[3] = cited from earlier work
AADAC = details: cited from earlier work
[4] = Amide hydrolysis by minipig liver microsomes; details: 1 mg/ml protein, 0.5 µM amide, pH 7.4, up to 120 min, no NADPH
From the text: as §1, §2

- change in rate of hydrolysis as a result of Aroclor 1254 induction [1]: enhanced rate of hydrolysis
Compound: O=C(CCl)Nc1ccccc1 [2-chloro-N-phenylacetamide]

Compound: Nc1ccc([N+](=O)[O-])c(C(F)(F)F)c1 [3-trifluoromethyl-4-nitroaniline]
- hepatotoxicity [2]: associated with hepatotoxicity

Compound: CC(=O)Nc1ccccc1 [acetanilide, Acetanilide]
- amide hydrolysis in humans in vivo [3]: has been observed
- dose hydrolysed in humans in vivo [3]: approximately 10%

Compound: CC(O)(CS(=O)(=O)c1ccc(F)cc1)C(=O)Nc1ccc(C#N)c(C(F)(F)F)c1 (stereo not shown) [bicalutamide, Bicalutamide]
- hepatotoxicity [2]: few cases of hepatotoxicity

Compound: CC(C)C(=O)Nc1ccc([N+](=O)[O-])c(C(F)(F)F)c1 [flutamide, Flutamide]
- enzyme mainly responsible for hydrolysis (AADAC): AADAC

Compound: CC(=O)Nc1ccc(O)cc1 [paracetamol, Paracetamol]
- dose hydrolysed in humans in vivo [3]: 1–2%

Compound: CCCNC(C)C(=O)Nc1ccccc1C (stereo not shown) [prilocaine, Prilocaine]
- amide hydrolysis in humans in vivo [3]: undergo hydrolysis

Compound: CCC(=O)Nc1ccc(Cl)c(Cl)c1 [propanil, Propanil]
- amide hydrolysis in humans in vivo ([3]; human): undergo hydrolysis
- amide hydrolysis [4]: successful hydrolysis
